Results from patent publication US20260217717A1, “CDK2 INHIBITORS” (BLUEPRINT MEDICINES CORPORATION, priority 2023, published 2026).

How the values were obtained:
CDK1/Cyclin B1 = target: T1, CDK1/Cyclin B1 (Homo sapiens, UniProt P06493); assay: CDK1/Cyclin B1 enzymatic phosphorylation assay (Caliper mobility shift); format: biochemical; details: read-out: Enzyme CDK1/cyclin B1 IC50
T1 construct: GST; purchased BPS 40454
Experimental: (§1) Reactions proceeded until between 10% to 20% total peptides were phosphorylated at room temperature (25° C.) and were terminated with 35 mM 2,2′,2″,2′″-(ethane-1,2-diyldinitrilo)tetraacetic acid (EDTA). Product was detected using the Caliper mobility shift detection method where the phosphorylated peptide (product) and substrate were electrophoretically separated and measured. Percent activity was plotted against log concentration of compound and points to generate an apparent IC50.

CDK2/Cyclin E = target: T2, CDK2/Cyclin E (Homo sapiens, UniProt P24941); assay: CDK2/Cyclin E enzymatic phosphorylation assay (Caliper mobility shift); format: biochemical; details: read-out: Enzyme CDK2/cyclin E IC50; further: 1.0 mM ATP or ATP Km
T2 construct: purchased Eurofins 14-475
Experimental: as §1

T1 sequence (P06493 whole entry): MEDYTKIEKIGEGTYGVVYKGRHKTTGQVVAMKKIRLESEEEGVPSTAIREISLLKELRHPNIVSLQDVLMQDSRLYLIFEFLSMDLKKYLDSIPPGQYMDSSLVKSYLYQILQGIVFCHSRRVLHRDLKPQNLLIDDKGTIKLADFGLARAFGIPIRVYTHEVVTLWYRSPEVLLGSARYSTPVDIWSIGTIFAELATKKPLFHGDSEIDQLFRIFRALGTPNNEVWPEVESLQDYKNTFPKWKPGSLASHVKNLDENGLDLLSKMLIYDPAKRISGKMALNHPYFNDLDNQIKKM
T1 sequence (P14635 whole entry partner): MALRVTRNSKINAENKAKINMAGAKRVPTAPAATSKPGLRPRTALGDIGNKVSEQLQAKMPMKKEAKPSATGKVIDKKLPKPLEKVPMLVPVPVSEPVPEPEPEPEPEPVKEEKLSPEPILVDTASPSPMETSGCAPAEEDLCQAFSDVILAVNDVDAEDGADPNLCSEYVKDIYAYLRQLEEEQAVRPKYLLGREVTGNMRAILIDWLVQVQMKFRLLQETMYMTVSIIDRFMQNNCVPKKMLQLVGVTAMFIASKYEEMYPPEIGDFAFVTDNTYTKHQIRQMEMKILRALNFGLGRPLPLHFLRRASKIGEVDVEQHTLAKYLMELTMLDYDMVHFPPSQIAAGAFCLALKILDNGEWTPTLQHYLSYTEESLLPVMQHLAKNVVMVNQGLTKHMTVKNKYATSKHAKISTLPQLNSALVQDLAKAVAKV

Row | IC50 (CDK1/Cyclin B1) [nM] | IC50 (CDK2/Cyclin E) [nM] | SMILES
1 | 57.8 | 0.1 | C[C@@H](c1cccnc1)n1ncc2ncc(Nc3cc(C4CC4)[nH]n3)nc21 [Example 31, (S)-N-(5-cyclopropyl-1H-pyrazol-3-yl)-1-(1-(pyridin-3-yl)ethyl)-1H-pyrazolo[3,4-b]pyrazin-6-amine]
2 | 1420 | 6.4 | C[C@@H](c1cccnc1)n1ncc2ncc(Nc3cc(C4COC4)[nH]n3)nc21 [Example 33, (S)-N-(5-(oxetan-3-yl)-1H-pyrazol-3-yl)-1-(1-(pyridin-3-yl)ethyl)-1H-pyrazolo[3,4-b]pyrazin-6-amine]
3 | 1900 | 10.8 | c1cncc(Cn2ncc3ncc(Nc4cc(C5COC5)[nH]n4)nc32)c1 [Example 34, N-(5-(oxetan-3-yl)-1H-pyrazol-3-yl)-1-(pyridin-3-ylmethyl)-1H-pyrazolo[3,4-b]pyrazin-6-amine]
4 | 592 | 2.3 | C[C@@H](c1ccccc1)n1ncc2ncc(Nc3cc(C4COC4)[nH]n3)nc21 [Example 42, (S)-N-(5-(oxetan-3-yl)-1H-pyrazol-3-yl)-1-(1-phenylethyl)-1H-pyrazolo[3,4-b]pyrazin-6-amine]
5 | 2220 | 18.5 | c1ccc(Cn2ncc3ncc(Nc4cc(C5COC5)[nH]n4)nc32)cc1 [Example 44, 1-benzyl-N-(5-(oxetan-3-yl)-1H-pyrazol-3-yl)-1H-pyrazolo[3,4-b]pyrazin-6-amine]
6 | 1380 | 5.3 | Fc1ccccc1Cn1ncc2ncc(Nc3cc(C4COC4)[nH]n3)nc21 [Example 45, 1-(2-fluorobenzyl)-N-(5-(oxetan-3-yl)-1H-pyrazol-3-yl)-1H-pyrazolo[3,4-b]pyrazin-6-amine]
7 | 644 | 2.8 | Fc1ncccc1Cn1ncc2ncc(Nc3cc(C4COC4)[nH]n3)nc21 [Example 49, 1-((2-fluoropyridin-3-yl)methyl)-N-(5-(oxetan-3-yl)-1H-pyrazol-3-yl)-1H-pyrazolo[3,4-b]pyrazin-6-amine]
8 | 422 | 1.8 | C[C@@H](c1cccc(F)c1)n1ncc2ncc(Nc3cc(C4COC4)[nH]n3)nc21 [Example 51, (S)-1-(1-(3-fluorophenyl)ethyl)-N-(5-(oxetan-3-yl)-1H-pyrazol-3-yl)-1H-pyrazolo[3,4-b]pyrazin-6-amine]
9 | 104 | 0.2 | C[C@@H](c1ccccc1F)n1ncc2ncc(Nc3cc(C4COC4)[nH]n3)nc21 [Example 52, (S)-1-(1-(2-fluorophenyl)ethyl)-N-(5-(oxetan-3-yl)-1H-pyrazol-3-yl)-1H-pyrazolo[3,4-b]pyrazin-6-amine]
10 | 330 | 1.9 | C[C@@H](c1ccc(F)cc1)n1ncc2ncc(Nc3cc(C4COC4)[nH]n3)nc21 [Example 53, (S)-1-(1-(4-fluorophenyl)ethyl)-N-(5-(oxetan-3-yl)-1H-pyrazol-3-yl)-1H-pyrazolo[3,4-b]pyrazin-6-amine]
11 | 951 | 2 | C[C@@H](c1ccccn1)n1ncc2ncc(Nc3cc(C4COC4)[nH]n3)nc21 [Example 55, (S)-N-(5-(oxetan-3-yl)-1H-pyrazol-3-yl)-1-(1-(pyridin-2-yl)ethyl)-1H-pyrazolo[3,4-b]pyrazin-6-amine]

More lines, now with the values behind:

Row | SMILES | IC50 (CDK1/Cyclin B1) [nM] | IC50 (CDK2/Cyclin E) [nM]
12 | CC(C)c1cc(Nc2cnc3cnn(CC4CCOCC4)c3n2)n[nH]1 [Example 30, N-(5-isopropyl-1H-pyrazol-3-yl)-1-((tetrahydro-2H-pyran-4-yl)methyl)-1H-pyrazolo[3,4-b]pyrazin-6-amine] | 113 | 0.6
13 | CCc1cc(Nc2cnc3cnn([C@@H](C)c4cccnc4)c3n2)n[nH]1 [Example 32, (S)-N-(5-ethyl-1H-pyrazol-3-yl)-1-(1-(pyridin-3-yl)ethyl)-1H-pyrazolo[3,4-b]pyrazin-6-amine] | 465 | 1.9
14 | c1nc2cnn(CC3CCOCC3)c2nc1Nc1cc(C2COC2)[nH]n1 [Example 35, N-(5-(oxetan-3-yl)-1H-pyrazol-3-yl)-1-((tetrahydro-2H-pyran-4-yl)methyl)-1H-pyrazolo[3,4-b]pyrazin-6-amine] | 877 | 11.3
15 | c1nc2cnn(CC3CCOCC3)c2nc1Nc1cc(C2CC2)[nH]n1 [Example 36, N-(5-cyclopropyl-1H-pyrazol-3-yl)-1-((tetrahydro-2H-pyran-4-yl)methyl)-1H-pyrazolo[3,4-b]pyrazin-6-amine] | 83.6 | 0.5
16 | CCc1cc(Nc2cnc3cnn(CC4CCOCC4)c3n2)n[nH]1 [Example 37, N-(5-ethyl-1H-pyrazol-3-yl)-1-((tetrahydro-2H-pyran-4-yl)methyl)-1H-pyrazolo[3,4-b]pyrazin-6-amine] | 533 | 5.4
17 | O[C@H]1CC[C@H](n2ncc3ncc(Nc4cc(C5COC5)[nH]n4)nc32)CC1 [Example 38, (1r,4r)-4-(6-((5-(oxetan-3-yl)-1H-pyrazol-3-yl)amino)-1H-pyrazolo[3,4-b]pyrazin-1-yl)cyclohexan-1-ol] | 509 | 3.5
18 | Cc1cc(Nc2cnc3cnn([C@H]4CC[C@H](O)CC4)c3n2)n[nH]1 [Example 39, (1r,4r)-4-(6-((5-methyl-1H-pyrazol-3-yl)amino)-1H-pyrazolo[3,4-b]pyrazin-1-yl)cyclohexan-1-ol] | 7650 | 90
19 | CC(C)c1cc(Nc2cnc3cnn([C@H](C)c4cccnc4)c3n2)n[nH]1 [Example 40, (R)-N-(5-isopropyl-1H-pyrazol-3-yl)-1-(1-(pyridin-3-yl)ethyl)-1H-pyrazolo[3,4-b]pyrazin-6-amine] | 93 | 0.3
20 | C[C@@H](C1CCOCC1)n1ncc2ncc(Nc3cc(C4COC4)[nH]n3)nc21 [Example 41, (S)-N-(5-(oxetan-3-yl)-1H-pyrazol-3-yl)-1-(1-(tetrahydro-2H-pyran-4-yl)ethyl)-1H-pyrazolo[3,4-b]pyrazin-6-amine] | 334 | 1.7
21 | C[C@H](C1CCOCC1)n1ncc2ncc(Nc3cc(C4COC4)[nH]n3)nc21 [Example 43, (R)-N-(5-(oxetan-3-yl)-1H-pyrazol-3-yl)-1-(1-(tetrahydro-2H-pyran-4-yl)ethyl)-1H-pyrazolo[3,4-b]pyrazin-6-amine] | 1650 | 21.4
22 | Fc1cccc(Cn2ncc3ncc(Nc4cc(C5COC5)[nH]n4)nc32)c1 [Example 46, 1-(3-fluorobenzyl)-N-(5-(oxetan-3-yl)-1H-pyrazol-3-yl)-1H-pyrazolo[3,4-b]pyrazin-6-amine] | 1060 | 7.9
23 | Fc1ccc(Cn2ncc3ncc(Nc4cc(C5COC5)[nH]n4)nc32)cc1 [Example 47, 1-(4-fluorobenzyl)-N-(5-(oxetan-3-yl)-1H-pyrazol-3-yl)-1H-pyrazolo[3,4-b]pyrazin-6-amine] | 1380 | 16
24 | Fc1ccc(Cn2ncc3ncc(Nc4cc(C5COC5)[nH]n4)nc32)cn1 [Example 48, 1-((6-fluoropyridin-3-yl)methyl)-N-(5-(oxetan-3-yl)-1H-pyrazol-3-yl)-1H-pyrazolo[3,4-b]pyrazin-6-amine] | 1840 | 13.1
25 | Fc1cncc(Cn2ncc3ncc(Nc4cc(C5COC5)[nH]n4)nc32)c1 [Example 50, 1-((5-fluoropyridin-3-yl)methyl)-N-(5-(oxetan-3-yl)-1H-pyrazol-3-yl)-1H-pyrazolo[3,4-b]pyrazin-6-amine] | 3060 | 44.8
26 | Cc1cc(Nc2cnc3cnn([C@@H](C)C4CCOCC4)c3n2)n[nH]1 [Example 54, (S)-N-(5-methyl-1H-pyrazol-3-yl)-1-(1-(tetrahydro-2H-pyran-4-yl)ethyl)-1H-pyrazolo[3,4-b]pyrazin-6-amine] | 3670 | 26
27 | Cc1cc(Nc2cnc3cnn([C@@H](C)c4cccnc4F)c3n2)n[nH]1 [Example 56, (S)-1-(1-(2-fluoropyridin-3-yl)ethyl)-N-(5-methyl-1H-pyrazol-3-yl)-1H-pyrazolo[3,4-b]pyrazin-6-amine] | 709 | 3
28 | CC(C)c1cc(Nc2cnc3cnn([C@H]4CC[C@H](O)CC4)c3n2)n[nH]1 [Example 57, (1r,4r)-4-(6-((5-isopropyl-1H-pyrazol-3-yl)amino)-1H-pyrazolo[3,4-b]pyrazin-1-yl)cyclohexan-1-ol] | 174 | 1
29 | CC(=O)N1CCC(n2ncc3ncc(Nc4cc(C(C)C)[nH]n4)nc32)CC1 [Example 58, 1-(4-(6-((5-isopropyl-1H-pyrazol-3-yl)amino)-1H-pyrazolo[3,4-b]pyrazin-1-yl)piperidin-1-yl)ethan-1-one] | 237 | 3.5
30 | CC(=O)N1CCC[C@H](n2ncc3ncc(Nc4cc(C(C)C)[nH]n4)nc32)C1 [Example 59, (S)-1-(3-(6-((5-isopropyl-1H-pyrazolo-3-yl)amino)-1H-pyrazolo[3,4-b]pyrazin-1-yl)piperidin-1-yl)ethan-1-one] | 2370 | 14.8
31 | CC(C)c1cc(Nc2cnc3cnn(C[C@@H](C)CO)c3n2)n[nH]1 [Example 60, (R)-3-(6-((5-isopropyl-1H-pyrazol-3-yl)amino)-1H-pyrazolo[3,4-b]pyrazin-1-yl)-2-methylpropan-1-ol] | 1570 | 7.9
32 | CC(C)c1cc(Nc2cnc3cnn(C[C@H](C)CO)c3n2)n[nH]1 [Example 61, (S)-3-(6-((5-isopropyl-1H-pyrazol-3-yl)amino)-1H-pyrazolo[3,4-b]pyrazin-1-yl)-2-methylpropan-1-ol] | 1880 | 13.2
33 | CC(C)c1cc(Nc2cnc3cnn(CC4CCNCC4)c3n2)n[nH]1 [Example 62, N-(5-isopropyl-1H-pyrazol-3-yl)-1-(piperidin-4-ylmethyl)-1H-pyrazolo[3,4-b]pyrazin-6-amine] | 1930 | 16
